Measured values: the supplement of paper PMC8671470
Where a name gives a salt, the structure may show the parent alone.

Tests used:
Assay in all cases: cell viability (% survival relative to DMSO control); higher = less cytotoxic
Settings in all cases: 72 h
BV-173 = test system: BV-173
Protocol: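 8x8 drug-combination matrices (0–5000 nM; rosiglitazone and lestaurtinib 0–1000 nM) were run in BV-173 cells for 72 h with CellTiter-Glo read-out. Survival is normalised to DMSO and 10 µM bortezomib and clipped at 100%.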

Mono-Mac-6 = test system: Mono-Mac-6
Protocol: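 8x8 drug-combination matrices (0–5000 nM; rosiglitazone and lestaurtinib 0–1000 nM) were run in Mono-Mac-6 cells for 72 h with CellTiter-Glo read-out. Survival is normalised to DMSO and 10 µM bortezomib and clipped at 100%.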

HL-60 = test system: HL-60
Protocol: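 8x8 drug-combination matrices (0-5000 nM; rosiglitazone and lestaurtinib 0-1000 nM) were run in HL-60 cells for 72 h with a CellTiter-Glo read-out. Survival is normalised to DMSO and 10 µM bortezomib and clipped at 100%. Bliss synergy was analysed in SynergyFinder.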

O=C(O)CC[N+](=O)[O-] [3-nitropropionic acid] + CCn1c(=Cc2cccc[n+]2CC)sc(=C2Sc3ccccc3N2C)c1=O [MKT 077]
cell viability [%]
Settings	drug1 concentration 5 nM	drug1 concentration 10 nM	drug1 concentration 50 nM	drug1 concentration 100 nM	drug1 concentration 500 nM	drug1 concentration 1000 nM	drug1 concentration 5000 nM
BV-173, drug2 concentration 5 nM	83.1	78.6	88.7	> 100	> 100	83.5	59.7
BV-173, drug2 concentration 10 nM	97.8	> 100	> 100	94.6	72.9	92.9	> 100
BV-173, drug2 concentration 50 nM	93.3	> 100	> 100	> 100	> 100	99.5	> 100
BV-173, drug2 concentration 100 nM	78.1	85.8	> 100	94.3	> 100	> 100	87.9
BV-173, drug2 concentration 500 nM	> 100	84.2	84.2	86.4	> 100	76.6	> 100
BV-173, drug2 concentration 1000 nM	> 100	> 100	> 100	> 100	89.1	88.9	74.4
BV-173, drug2 concentration 5000 nM	> 100	72	> 100	> 100	> 100	> 100	> 100
HL-60, drug2 concentration 5 nM	95.5	92.9	74.5	> 100	> 100	> 100	88.8
HL-60, drug2 concentration 10 nM	> 100	> 100	> 100	> 100	> 100	> 100	> 100
HL-60, drug2 concentration 50 nM	> 100	92.7	> 100	98.3	97.7	> 100	> 100
HL-60, drug2 concentration 100 nM	91.2	83.3	56.4	> 100	99.2	50.3	> 100
HL-60, drug2 concentration 500 nM	99.2	84.2	> 100	> 100	> 100	84.7	86.6
HL-60, drug2 concentration 1000 nM	> 100	> 100	> 100	> 100	84	> 100	67.3
HL-60, drug2 concentration 5000 nM	> 100	79.2	> 100	84.7	> 100	> 100	99.6
Mono-Mac-6, drug2 concentration 5 nM	> 100	98.1	> 100	90.2	> 100	> 100	90.3
Mono-Mac-6, drug2 concentration 10 nM	> 100	> 100	> 100	> 100	> 100	> 100	> 100
Mono-Mac-6, drug2 concentration 50 nM	> 100	> 100	> 100	91	96.5	86	> 100
Mono-Mac-6, drug2 concentration 100 nM	84.8	> 100	> 100	> 100	> 100	> 100	76.8
Mono-Mac-6, drug2 concentration 500 nM	99.9	82.8	> 100	> 100	> 100	84.4	> 100
Mono-Mac-6, drug2 concentration 1000 nM	> 100	> 100	> 100	> 100	96.7	87	82.4
Mono-Mac-6, drug2 concentration 5000 nM	79.1	74.4	> 100	> 100	63.8	> 100	> 100

CCn1c(=Cc2cccc[n+]2CC)sc(=C2Sc3ccccc3N2C)c1=O [MKT 077] + CN(C)CCNC(=O)c1cccn2c(=O)c3cc4ccccc4cc3nc12 [Bmh-21]
cell viability [%]
Settings	drug1 concentration 5 nM	drug1 concentration 10 nM	drug1 concentration 50 nM	drug1 concentration 100 nM	drug1 concentration 500 nM	drug1 concentration 1000 nM	drug1 concentration 5000 nM
BV-173, drug2 concentration 5 nM	90.2	> 100	> 100	> 100	82.7	> 100	93.6
BV-173, drug2 concentration 10 nM	> 100	> 100	> 100	> 100	> 100	> 100	> 100
BV-173, drug2 concentration 50 nM	> 100	> 100	86	90.4	86.5	> 100	> 100
BV-173, drug2 concentration 100 nM	> 100	96.7	94.6	> 100	90.9	> 100	> 100
BV-173, drug2 concentration 500 nM	4.65	59.5	45.4	34.8	46.4	11.4	49.9
BV-173, drug2 concentration 1000 nM	0.56	28.5	1.73	66.5	1.33	2.69	6.83
BV-173, drug2 concentration 5000 nM	0.22	1.2	-0.65	0.37	-0.07	0.15	6.67
HL-60, drug2 concentration 5 nM	72.8	> 100	> 100	> 100	> 100	> 100	82
HL-60, drug2 concentration 10 nM	97.1	92.4	> 100	> 100	62.4	> 100	> 100
HL-60, drug2 concentration 50 nM	> 100	89.5	> 100	> 100	87.1	> 100	> 100
HL-60, drug2 concentration 100 nM	> 100	> 100	> 100	> 100	85.5	> 100	> 100
HL-60, drug2 concentration 500 nM	58.2	61.1	40.5	44.1	86	41.3	84.4
HL-60, drug2 concentration 1000 nM	31.2	58.3	48.1	66.9	18.6	34.4	54.3
HL-60, drug2 concentration 5000 nM	16.4	30.1	-2.48	43.2	29.9	7.94	52
Mono-Mac-6, drug2 concentration 5 nM	93.5	> 100	99.6	94.6	99.8	> 100	> 100
Mono-Mac-6, drug2 concentration 10 nM	> 100	> 100	> 100	90.1	> 100	78.2	> 100
Mono-Mac-6, drug2 concentration 50 nM	95.8	86.2	82.7	> 100	87.1	> 100	99
Mono-Mac-6, drug2 concentration 100 nM	91.6	> 100	> 100	99.7	> 100	> 100	> 100
Mono-Mac-6, drug2 concentration 500 nM	90.4	93.3	82.1	87.7	84.3	62.8	73.5
Mono-Mac-6, drug2 concentration 1000 nM	76.7	77.5	> 100	72.8	76.2	74.1	56.9
Mono-Mac-6, drug2 concentration 5000 nM	46	58.2	59.9	64.1	65.1	58.6	24.6

CN(CCOc1ccc(Cc2sc(O)nc2O)cc1)c1ccccn1 [Rosiglitazone] + CC(C)(Cc1ccccc1)NCC(O)c1ccc(O)c(NS(C)(=O)=O)c1 [Zinterol hydrochloride]
cell viability [%]
Settings	drug1 concentration 1 nM	drug1 concentration 5 nM	drug1 concentration 10 nM	drug1 concentration 50 nM	drug1 concentration 100 nM	drug1 concentration 500 nM	drug1 concentration 1000 nM
BV-173, drug2 concentration 5 nM	> 100	> 100	> 100	> 100	> 100	> 100	> 100
BV-173, drug2 concentration 10 nM	> 100	86.8	> 100	> 100	> 100	> 100	> 100
BV-173, drug2 concentration 50 nM	98.6	> 100	88.7	> 100	91.5	> 100	> 100
BV-173, drug2 concentration 100 nM	> 100	> 100	> 100	> 100	> 100	97.1	> 100
BV-173, drug2 concentration 500 nM	> 100	> 100	> 100	> 100	> 100	> 100	> 100
BV-173, drug2 concentration 1000 nM	> 100	89.5	> 100	94.1	> 100	> 100	> 100
BV-173, drug2 concentration 5000 nM	94.8	> 100	90.4	> 100	> 100	97.6	> 100
HL-60, drug2 concentration 5 nM	87.9	41.2	> 100	97.5	> 100	> 100	> 100
HL-60, drug2 concentration 10 nM	63.4	95.3	> 100	> 100	62.7	> 100	> 100
HL-60, drug2 concentration 50 nM	83.3	83	83.9	> 100	58.8	> 100	92.8
HL-60, drug2 concentration 100 nM	> 100	92.2	90.1	> 100	80.5	78.9	> 100
HL-60, drug2 concentration 500 nM	90.1	> 100	> 100	95.3	> 100	72.1	80.8
HL-60, drug2 concentration 1000 nM	40.6	> 100	> 100	> 100	> 100	60.1	> 100
HL-60, drug2 concentration 5000 nM	59.8	94.4	> 100	> 100	> 100	> 100	97.7
Mono-Mac-6, drug2 concentration 5 nM	83	77.8	> 100	79.7	78.7	27.6	21.7
Mono-Mac-6, drug2 concentration 10 nM	66.3	76	74.4	89.6	60.8	20.5	24.5
Mono-Mac-6, drug2 concentration 50 nM	86.8	79.1	74.5	76.7	45.8	29.2	28.8
Mono-Mac-6, drug2 concentration 100 nM	70.8	77.4	78.3	62.9	49.7	28	18.9
Mono-Mac-6, drug2 concentration 500 nM	74.7	67.8	67.6	66.1	47.9	28.4	27.1
Mono-Mac-6, drug2 concentration 1000 nM	76.3	86.7	74.7	66.2	45.4	20.5	32.7
Mono-Mac-6, drug2 concentration 5000 nM	55.9	64.8	51.4	46.9	49.4	22	0

CN(CCOc1ccc(Cc2sc(O)nc2O)cc1)c1ccccn1 [Rosiglitazone] + c1cc(-c2cnn3cc(-c4ccc(OCCN5CCCCC5)cc4)cnc23)ccn1 [Dorsomorphin]
cell viability [%]
Settings	drug1 concentration 1 nM	drug1 concentration 5 nM	drug1 concentration 10 nM	drug1 concentration 50 nM	drug1 concentration 100 nM	drug1 concentration 500 nM	drug1 concentration 1000 nM
BV-173, drug2 concentration 5 nM	> 100	> 100	> 100	> 100	> 100	> 100	91.8
BV-173, drug2 concentration 10 nM	> 100	> 100	> 100	97.8	> 100	> 100	> 100
BV-173, drug2 concentration 50 nM	58.5	> 100	> 100	> 100	> 100	> 100	> 100
BV-173, drug2 concentration 100 nM	> 100	99.4	> 100	77.2	> 100	> 100	> 100
BV-173, drug2 concentration 500 nM	> 100	> 100	94.2	> 100	> 100	98.4	95.3
BV-173, drug2 concentration 1000 nM	91.7	> 100	62.5	> 100	> 100	> 100	> 100
BV-173, drug2 concentration 5000 nM	75.2	85	99.8	93.5	97.2	> 100	> 100
HL-60, drug2 concentration 5 nM	> 100	95	74	> 100	> 100	94.8	> 100
HL-60, drug2 concentration 10 nM	> 100	> 100	> 100	> 100	> 100	> 100	> 100
HL-60, drug2 concentration 50 nM	94.3	> 100	> 100	> 100	81.2	> 100	> 100
HL-60, drug2 concentration 100 nM	91.4	> 100	> 100	> 100	> 100	> 100	> 100
HL-60, drug2 concentration 500 nM	90.8	> 100	84.6	> 100	> 100	60.9	> 100
HL-60, drug2 concentration 1000 nM	88	> 100	40.1	> 100	86.7	87.6	96.3
HL-60, drug2 concentration 5000 nM	12.7	33.1	33.7	24.4	65.7	82.5	90.1
Mono-Mac-6, drug2 concentration 5 nM	> 100	> 100	93	> 100	89	49.2	33.8
Mono-Mac-6, drug2 concentration 10 nM	> 100	85.1	84.3	84.5	76	36.1	32.6
Mono-Mac-6, drug2 concentration 50 nM	87.3	81.8	78.8	94.7	85.6	47.2	33.5
Mono-Mac-6, drug2 concentration 100 nM	68.8	> 100	84.1	74.5	81.5	28.7	31.1
Mono-Mac-6, drug2 concentration 500 nM	78.1	59.9	54.8	60.7	53.5	22.8	6.36
Mono-Mac-6, drug2 concentration 1000 nM	42.4	38.6	35.9	47.5	37.7	11.6	9.67
Mono-Mac-6, drug2 concentration 5000 nM	6.04	9.54	9.61	9.94	12.2	5.66	12.4
